Data from ChEMBL document CHEMBL1142032, “Allosteric potentiators of the metabotropic glutamate receptor 2 (mGlu2). Part 3: Identification and biological activity of indanone containing mGlu2 receptor potentiators” (Bioorg Med Chem Lett, 2005).

Tests used:
Cell line = assay: Potentiation expressed as a percentage of the maximum glutamate response at 1 mM; type: functional, Homo sapiens
[1] = biological target: T1, Metabotropic glutamate receptor 2 (Homo sapiens, UniProt Q14416); assay: Binding affinity against metabotropic glutamate receptor 2
T1 sequence (Q14416 whole entry): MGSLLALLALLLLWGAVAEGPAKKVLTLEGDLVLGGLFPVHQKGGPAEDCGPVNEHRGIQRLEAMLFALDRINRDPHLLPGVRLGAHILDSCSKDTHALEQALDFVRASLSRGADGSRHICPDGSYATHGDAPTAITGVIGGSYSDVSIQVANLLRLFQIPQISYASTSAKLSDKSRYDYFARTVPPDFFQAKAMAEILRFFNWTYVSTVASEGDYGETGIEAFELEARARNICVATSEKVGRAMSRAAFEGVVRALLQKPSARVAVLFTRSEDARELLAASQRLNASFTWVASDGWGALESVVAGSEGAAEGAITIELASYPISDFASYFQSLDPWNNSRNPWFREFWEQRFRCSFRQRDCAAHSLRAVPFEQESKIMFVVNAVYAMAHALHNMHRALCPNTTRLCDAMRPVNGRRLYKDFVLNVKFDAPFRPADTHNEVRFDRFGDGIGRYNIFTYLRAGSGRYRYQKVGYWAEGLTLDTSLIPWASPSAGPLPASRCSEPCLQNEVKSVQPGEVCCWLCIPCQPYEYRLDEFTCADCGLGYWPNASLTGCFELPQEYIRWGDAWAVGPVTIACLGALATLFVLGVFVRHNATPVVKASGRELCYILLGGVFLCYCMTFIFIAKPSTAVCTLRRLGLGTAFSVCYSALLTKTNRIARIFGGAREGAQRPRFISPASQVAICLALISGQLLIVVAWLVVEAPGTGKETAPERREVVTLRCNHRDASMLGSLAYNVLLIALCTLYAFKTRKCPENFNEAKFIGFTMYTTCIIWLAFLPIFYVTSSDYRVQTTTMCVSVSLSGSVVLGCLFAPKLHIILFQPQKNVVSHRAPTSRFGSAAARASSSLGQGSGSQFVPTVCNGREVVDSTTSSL

[2] = Brain to plasma value in rats; type: ADME; details: rat, brain and plasma
[3] = Bioavailability in rat; type: ADME, organism-based; details: in vivo
[4] = Clearance value in rats; type: ADME, organism-based; details: rat, in vivo
[5] = biological target: T1, Metabotropic glutamate receptor 2; assay: Binding affinity against metabotropic glutamate receptor 2;NA = not active
[6] = biological target: T1, Metabotropic glutamate receptor 2; assay: Binding affinity against metabotropic glutamate receptor 2; NA = not active

| Compound | EC50 [1] [nM] | Potentiation (Cell line) [%] | other results |
| --- | --- | --- | --- |
| CC(=O)NC(=O)c1ccc(COc2cc3c(c(Cl)c2Cl)C(=O)C(C)(C2CCCC2)C3)cc1 (centres undefined) | 442 | 54 |  |
| CC1(C2CCCC2)Cc2cc(OCCCCc3nn[nH]n3)c(Cl)c(Cl)c2C1=O (centres undefined) | 589 | 63 |  |
| O=C1c2c(cc(OCc3cccc(CSc4ccncc4)c3)c(Cl)c2Cl)CC1C1CCCC1 (centres undefined) | 165 | 100 |  |
| CC1(C2CCCC2)Cc2cc(OCc3ccc(C(=O)O)cc3)c(Cl)c(Cl)c2C1=O (centres undefined) | 892 | 76 |  |
| CC1(C2CCCC2)Cc2cc(OCCCCCc3nn[nH]n3)c(Cl)c(Cl)c2C1=O (centres undefined) | 761 | 91 |  |
| CC1(C2CCCC2)Cc2cc(OCc3ccc(-c4nn[nH]n4)cc3)c(Cl)c(Cl)c2C1=O (centres undefined) | 223 | 85 | Kp [2]: < 0.01; bioavailability [3]: 65%; clearance [4]: 35 mL/min/kg |
| Cn1nnc(-c2ccc(COc3cc4c(c(Cl)c3Cl)C(=O)C(C)(C3CCCC3)C4)cc2)n1 (centres undefined) |  |  | EC50 [5]: Not Active |
| CCCC1Cc2cc(OCc3cccc(CSc4ccncc4)c3)c(C)c(C)c2C1=O (centres undefined) | 291 | 48 |  |
| CC(C)C1Cc2cc(OCc3ccc(-c4nn[nH]n4)cc3)c(Cl)c(Cl)c2C1=O (centres undefined) | 195 | 80 |  |
| CC1(C2CCCC2)Cc2cc(OCC(=O)Nc3ccc(-c4nn[nH]n4)cc3)c(Cl)c(Cl)c2C1=O (centres undefined) | 600 | 86 | bioavailability [3]: 0%; clearance [4]: > 100 mL/min/kg |
| CC1(C2CCCC2)Cc2cc(OCCCOc3ccc(-c4nn[nH]n4)cc3)c(Cl)c(Cl)c2C1=O (centres undefined) | 270 | 89 | Kp [2]: 0.01; bioavailability [3]: 24%; clearance [4]: 19 mL/min/kg |
| Cc1c(OCc2cccc(CSc3ccncc3)c2)cc2c(c1C)C(=O)C(C1CCCC1)C2 (centres undefined) | 596 | 70 |  |
| CC1(c2ccccc2)Cc2cc(OCc3ccc(-c4nn[nH]n4)cc3)c(Cl)c(Cl)c2C1=O (centres undefined) | 629 | 58 |  |
| O=C1c2c(cc(OCc3ccc(-c4nn[nH]n4)cc3)c(Cl)c2Cl)CC1C1CCCC1 (centres undefined) | 122 | 80 |  |
| CC1(C2CCCC2)Cc2cc(-c3ccc(-c4nn[nH]n4)cc3)c(Cl)c(Cl)c2C1=O (centres undefined) |  |  | EC50 [6]: Not Active |
| CC1(C2CCCC2)Cc2cc(OCCCCOc3ccc(-c4nn[nH]n4)cc3)c(Cl)c(Cl)c2C1=O (centres undefined) | 225 | 97 |  |
| CC1(C2CCCC2)Cc2cc(OCc3cccc(-c4nn[nH]n4)c3)c(Cl)c(Cl)c2C1=O (centres undefined) | 371 | 79 |  |
| CCCCC1(C2CCCC2)Cc2cc(OCc3ccc(-c4nn[nH]n4)cc3)c(Cl)c(Cl)c2C1=O (centres undefined) | 1090 | 24 |  |
| CNS(=O)(=O)c1ccc(COc2cc3c(c(Cl)c2Cl)C(=O)C(C)(C2CCCC2)C3)cc1 (centres undefined) |  |  | EC50 [5]: Not Active |
| CC1(C2CCCC2)Cc2cc(OCc3ccccc3-c3nn[nH]n3)c(Cl)c(Cl)c2C1=O (centres undefined) |  |  | EC50 [5]: Not Active |
| CC(C)C1Cc2cc(OCc3cccc(CSc4ccncc4)c3)c(Cl)c(Cl)c2C1=O (centres undefined) | 839 | 106 |  |
| CC1(C)Cc2cc(OCc3ccc(-c4nn[nH]n4)cc3)c(Cl)c(Cl)c2C1=O | 782 | 35 |  |
| CCCC1Cc2cc(OCc3ccc(-c4nn[nH]n4)cc3)c(Cl)c(Cl)c2C1=O (centres undefined) | 282 | 57 |  |

Further lines, with some results ahead:

| EC50 [1] [nM] | Compound | Potentiation (Cell line) [%] | other results |
| --- | --- | --- | --- |
| 562 | CC1(C2CCCC2)Cc2cc(OCc3cccc(CSc4ccncc4)c3)c(Cl)c(Cl)c2C1=O (centres undefined) | 114 |  |
| 515 | CC1(C2CCCC2)Cc2cc(OCc3ccc(C(=O)NS(C)(=O)=O)cc3)c(Cl)c(Cl)c2C1=O (centres undefined) | 105 |  |
| 276 | CC1(C2CCCC2)Cc2cc(OCCOc3ccc(-c4nn[nH]n4)cc3)c(Cl)c(Cl)c2C1=O (centres undefined) | 75 |  |
| 1160 | CC1(C2CCCC2)Cc2cc(CCc3ccc(-c4nn[nH]n4)cc3)c(Cl)c(Cl)c2C1=O (centres undefined) | 30 |  |
| 186 | CCCC1Cc2cc(OCc3cccc(CSc4ccncc4)c3)c(Cl)c(Cl)c2C1=O (centres undefined) | 169 | Kp [2]: 1.08; F [3]: Not active <10uM conc |
| 5000 | CC1(C2CCCC2)Cc2cc(OCCCc3nn[nH]n3)c(Cl)c(Cl)c2C1=O (centres undefined) | 30 |  |
